Measured values reported in PubChem BioAssay (NCI).
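Dose response: 5 concentrations. Exposure: 48 h. Format: 96-well plates. Endpoint: linear interpolation; highest concentration if not reached. Here, GI50 denotes the concentration required for 50% inhibition of growth. TGI: concentration producing complete growth inhibition.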

Key:
Test in all cases: inhibition of tumour cell growth, NCI panel, 48 h
HT29 colon = test system: HT29 colon
HOP-62 NSCLC = test system: HOP-62 NSCLC
786-0 renal = test system: 786-0 renal
SN12C renal = test system: SN12C renal
U251 CNS = test system: U251 CNS
SF-295 CNS = test system: SF-295 CNS
SK-OV-3 ovarian = test system: SK-OV-3 ovarian
TK-10 renal = test system: TK-10 renal

| SMILES | TGI (HT29 colon) | TGI (HOP-62 NSCLC) | TGI (786-0 renal) | TGI (SN12C renal) | TGI (U251 CNS) | TGI (SF-295 CNS) | TGI (SK-OV-3 ovarian) | TGI (TK-10 renal) | GI50 (HT29 colon) | GI50 (HOP-62 NSCLC) | GI50 (786-0 renal) | GI50 (SN12C renal) | GI50 (TK-10 renal) | GI50 (U251 CNS) | GI50 (SF-295 CNS) | GI50 (SK-OV-3 ovarian) |
| --- | --- | --- | --- | --- | --- | --- | --- | --- | --- | --- | --- | --- | --- | --- | --- | --- |
| O=C1NC2C(O)CCCCC2C12CCCCC2 (stereo not given) | > 100 µM | > 100 µM | > 100 µM | > 100 µM | > 100 µM | > 100 µM | > 100 µM |  |  |  |  |  |  |  |  |  |
| COC(=O)N/N=C(\C)CC(=O)Nc1ccc(Cl)cc1 | > 100 µM | > 100 µM | > 100 µM |  | > 100 µM | > 100 µM | > 100 µM | > 100 µM |  |  |  |  |  |  |  |  |
| COc1cc(/C=N/N=C(\N)NO)c([N+](=O)[O-])cc1OC | > 100 µM | > 100 µM | > 100 µM | > 100 µM | > 100 µM | > 100 µM | > 100 µM | > 100 µM |  |  |  |  |  |  |  |  |
| C1=CCCC=CCC1.C[PH+](C)C.C[PH+](C)C.C[PH+](C)C.[Cl-].[Ir] | > 100 µM | > 100 µM | > 100 µM | > 100 µM | > 100 µM | > 100 µM | > 100 µM | > 100 µM | 47.6 µM | > 100 µM | > 100 µM | 82.6 µM | > 100 µM | 46.2 µM | > 100 µM | > 100 µM |
| C[CH2][Sn]([CH2]C)([O]C(=O)c1ccc(F)cc1)[O]C(=O)c1ccc(F)cc1 | > 100 µM | > 100 µM | 35.1 µM | > 100 µM | 42 µM | > 65.7 µM | > 100 µM | 32.4 µM | 63.8 µM | 62.6 µM | 18.8 µM | 36 µM | 17.8 µM | 19 µM | 44.3 µM | > 100 µM |
| COc1ccc2c(c1)CN1CCc3c(cc(OC)c(OC)c3OC)C1C2 (stereo not given) | > 100 µM | > 100 µM | > 100 µM | > 100 µM | > 100 µM | > 100 µM | > 100 µM | > 100 µM |  |  |  |  |  |  |  |  |
| CC[PH+](CC)CC.[Cl][Au] | 8.96 µM | 33.7 µM | 2.74 µM | 3.55 µM | 5.14 µM | 8.88 µM | 30 µM | 3.51 µM | 3.84 µM | 19.4 µM | 1.42 µM | 1.82 µM | 2 µM | 1.95 µM | 4.32 µM | 16.4 µM |
| COc1cc2cnc3c4cc(OCc5ccccc5)ccc4ccc3c2cc1OC | > 100 µM | 76.5 µM | 44.5 µM | > 100 µM | > 100 µM | 82.9 µM | 56.8 µM | 44 µM |  |  |  |  |  |  |  |  |
| CO[C@@]1(c2ccccc2)O[C@H]2OCCC2[C@H]1c1ccc(Cl)cc1 (stereo not given in full) | 50.6 µM | > 100 µM | > 100 µM | > 100 µM | 94 µM | 59.7 µM |  | > 100 µM |  |  |  |  |  |  |  |  |
| CC1=CCCC2C(C=O)(C1)CC(C)C2(CO)CC/C(=C/CO)CO (stereo not given) | > 100 µM |  | > 100 µM | > 100 µM | > 100 µM | > 100 µM | > 100 µM | > 100 µM |  |  |  |  |  |  |  |  |
